# Test results: patent US6936736B2, “Amide derivative” (Sumitomo Manufacturing Company Limited, priority 1997, dated 2005)
# How the values were obtained:
# [1] = system: constant white light-induced retinal damage; test: Experiment 1: protective effect against constant white light-induced retinal damage (ERG a-wave), intraperitoneal administration; format: in vivo, Male Wistar rats; settings: rats, 50 mg/kg intraperitoneally twice, in 0.5% methylcellulose; ERG a-wave amplitude after two days constant light
# From the text: Retinal outer nuclear cells have been known to be degenerated by the constant white light exposure to albino rats (L. M. Rapp, et al., New York: Plenum, 135 (1980)). Effectiveness of the compounds of formula 1, 2 or 3 or pharmaceutical acceptable salts thereof can be evaluated by their protective action against constant light exposure-induced retinal degeneration in rats. The present invention is embodied by the following experiment.
# (§1) Pharmacological Effect Against Constant White Light-induced Retinal Damage
# (§2) Male Wistar rats (7 weeks old, Charles River Japan Inc.) were purchased and maintained in cyclic light/dark environment (8:00-20:00/light term) for one week, and then placed within the apparatus for constant white light exposure for two days. The constant white light exposure apparatus is a covered breeding box of 1020 mm in length, 425 mm in width, 520 mm in height, which is made of acryl boards and of which all inner side are covered with mirrors. Light was continuously irradiated all the day long (24 hours) using white fluorescent lamp attached to the ceiling of the apparatus. The average illuminance in the apparatus was 174.2 foot candle. After two days in the apparatus, the rats were moved to a darkroom and dark adapted for 1-4 hours. The rats were anesthetized with pentobarbital and placed in a stereotaxic frame. After topical mydriatica was given and electrodes were put on corneal surface, center of the forehead and the lower part of the lobe, the response in active potential of retina to the flash stimulation with fixed energy was determined from the recorded ERG (electroretinogram). The damage of retina was evaluated by the decrease in the amplitude of ERG a-wave which originated from retinal outer nuclear cells (photoreceptors). Test compounds were intraperitoneally injected just before placing the rats into the constant light exposure apparatus and at the same time on the next day to investigate its protective effect.
# According to the experimental procedure described above, each test compound in the present invention, which was suspended or dissolved in 0.5% methylcellulose (MC) solution, was intraperitoneally administered twice to three rats in a group at the dose of 50 mg/kg. In the same way, 0.5% MC solution was intraperitoneally administered to the rats in MC group. The rats maintained in 12 hours cyclic light/dark environment were used for normal control group. The protection by the compounds against the retinal damage was represented as % recovery value, and the results were shown in Table 1. % recovery=(x−z)÷(y−z)×100 • x : a-wave amplitude in test compound group • y : a-wave amplitude in normal control group • z : a-wave amplitude in MC group
# [2] = system: constant white light-induced retinal damage; test: Experiment 2: protective effect against constant white light-induced retinal damage (ERG a-wave), administration of eye drops; format: in vivo; settings: rats, 50 μl per once to both eyes, at 0, 3, 6, 9 and 24 hours
# From the text: as §2, §1
# (§3) The protective effect of the compound of Examples by administration of eye drops was tested by the same method as Experiment 1. The tested compounds were administered immediately before rats were placed within the apparatus for constant white light exposure. Further, the eye drops were administered 3, 6, 9 and 24 hours after and the effect was evaluated.
# (§4) The compounds of the present invention were dissolved in 0.5% aqueous methylcellulose (MC) solution and each 50 μl of the solution per once was dropped to both eyes of 5 rats, according to the method of Experiment 1. In the same way, 0.5% MC solution was dropped to eyes of the rats in MC group.
# The rats maintained in 12 hours cyclic light/dark environment were used for normal control group.
# [3] = system: constant white light-induced retinal damage; test: Experiment 3: protective effect against constant white light-induced retinal damage (ERG a-wave), eye drops, several concentrations; format: in vivo; settings: rats, 50 μl per once to both eyes
# From the text: as §2, §3, §1
# The compound of Example 50 was further tested by the same method as Experiment 2.
# as §4, with “compound” for “compounds”, “was” for “were”, “group. The rats maintained in 12 hours cyclic light/dark environment were used for normal control group.” for “group.”
smiles,measurement,setting,value
"CC(C)(C)NC(=O)c1ccc(F)cc1F [Example 1, N-t-Butyl-2,4-difluorobenzamide]",% recovery (Mean ± S.E.M.),[1],95.5 ± 12.3%
same,% recovery (Mean ± S.E.M.),[2]; eye drops 2 mg/ml in 0.5% MC,11.6 ± 2.6%
"CC(C)(C)NC(=O)c1ccc(F)cc1 [Example 6, N-t-Butyl-4-fluorobenzamide]",% recovery (Mean ± S.E.M.),[1],80.1 ± 8.9%
"CC(C)(C)NC(=O)c1cc(F)ccc1F [Example 25, N-t-Butyl-2,5-difluorobenzamide]",% recovery (Mean ± S.E.M.),[2]; eye drops 1.2 mg/ml in 0.5% MC,16.2 ± 3.2%
"CC(C)(CO)NC(=O)c1ccc(F)cc1F [Example 27, N-(2-Hydroxy-1,1-dimethylethyl)-2,4-difluorobenzamide]",% recovery (Mean ± S.E.M.),[1],45.7 ± 10.1%
"CC(C)(C)NC(=O)c1ccc(Cl)cn1 [Example 40, N-t-Butyl-5-chloro-2-pyridinecarboxamide]",% recovery (Mean ± S.E.M.),[1],82.3 ± 25.6%
"CC(C)(CO)NC(=O)c1ccc(Cl)cn1 [Example 47, N-(2-Hydroxy-1,1-dimethylethyl)-5-chloro-2-pyridinecarboxamide]",% recovery (Mean ± S.E.M.),[1],58.2 ± 2.7%
"CC(C)(C)NC(=O)c1ccccc1F [Example 48, N-t-butyl-2-fluorobenzamide]",% recovery (Mean ± S.E.M.),[2]; eye drops 3.2 mg/ml in 0.5% MC,15.0 ± 3.7%
"CC(C)(C)NC(=O)c1ccc(Br)cc1F [Example 49, N-t-butyl-4-bromo-2-fluorobenzamide]",% recovery (Mean ± S.E.M.),[2]; eye drops 0.4 mg/ml in 0.5% MC,5.1 ± 1.8%
"CC(C)(C)NC(=O)c1cccc[n+]1[O-] [Example 50, N-t-butyl-1-oxide-2-pyridinecarboxamide]",% recovery (Mean ± S.E.M.),[2]; eye drops 10 mg/ml in 0.5% MC,19.1 ± 7.5%
same,% recovery (Mean ± S.E.M.),[3]; eye drops 3 mg/ml in 0.5% MC,2.3 ± 3.8%
same,% recovery (Mean ± S.E.M.),[3]; eye drops 10 mg/ml in 0.5% MC,6.9 ± 5.7%
same,% recovery (Mean ± S.E.M.),"[3]; eye drops 30 mg/ml in 0.5% MC, ** p < 0.01 vs solvent only (Dunnett)",17.4 ± 3.9** %
same,% recovery (Mean ± S.E.M.),"[3]; eye drops 60 mg/ml in 0.5% MC, ** p < 0.01 vs solvent only (Dunnett)",35.6 ± 2.7** %
